Some test systems named below: 786-0 renal; DU-145 prostate; M14 melanoma; MDA-MB-435; NCI-H226 lung; NCI-H23 lung; NCI/ADR-RES ovarian; SN12C renal; A498 renal; RPMI-8226 leukemia.
Holding throughout (experiment): inhibition of tumour cell growth, NCI panel, 48 h

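1) Cells in 96-well plates. 2) Compound, 48 h, 5 concentrations. 3) Linear interpolation between surrounding doses. 4) Unreached endpoint = highest concentration. Here, GI50 denotes the concentration required for 50% inhibition of growth. TGI is the concentration that stops growth completely.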

We go through 17 compounds from PubChem BioAssay (NCI).

As to `COc1ccc2c(c1O)[C@@]13CCCC=C1[C@@H](C2)[N+](C)(C)CC3`, the TGI with 786-0 renal, in the assay on DU-145 prostate, with M14 melanoma, in the assay on MDA-MB-435, in the assay on NCI-H226 lung and with NCI-H23 lung was greater than 100 µM throughout. The TGI with NCI/ADR-RES ovarian and with SN12C renal was greater than 100 µM in each case.
In the case of `CC1=NN(c2ccccc2)C(=O)C12[C@H](c1ccccc1)C2(C#N)C#N` (stereo partly drawn), the TGI with 786-0 renal worked out at 6.18 µM; with A498 renal, 31.6 µM; with M14 melanoma, 3.14 µM; in the assay on NCI-H226 lung, 26.3 µM; with NCI-H23 lung, 11 µM; with RPMI-8226 leukemia it was 4.08 µM. Besides, the TGI in the assay on SN12C renal is 14.3 µM.
Consider `CC12OC(C(=O)C13CC3)C1C(=O)c3c(O)ccc(O)c3C(=O)C12` (stereo not drawn), for which the GI50 in the assay on 786-0 renal was 2190 nM; in the assay on M14 melanoma, 15.3 µM; in the assay on MDA-MB-435 it was 18.4 µM; in the assay on NCI-H23 lung, 14.4 µM; in the assay on NCI/ADR-RES ovarian it was 20.1 µM. Also, the TGI in the assay on 786-0 renal turned out to be 6.56 µM; in the assay with M14 melanoma it was 30.2 µM; with MDA-MB-435 it was 36.5 µM; in the assay with NCI-H23 lung, 31.1 µM; in the assay on NCI/ADR-RES ovarian it was 66.8 µM.
For the compound `O=C1CC(C2(O)C(=O)Nc3ccc([N+](=O)[O-])cc32)c2ccccc21` (stereo not drawn), the TGI is 36.6 µM in the assay with 786-0 renal; greater than 100 µM with A498 renal; 52.2 µM in the assay on M14 melanoma; 92.7 µM in the assay on NCI-H226 lung; 71 µM with NCI-H23 lung; 57.5 µM with RPMI-8226 leukemia. In the assay with SN12C renal, this compound returned a TGI of 80.5 µM.
Take `CCOC(=O)c1sc2c(C(=O)OCC)n3cc(C)cc(C)c3c2c1O`: the TGI with 786-0 renal, in the assay on M14 melanoma, in the assay with NCI-H226 lung, in the assay on NCI-H23 lung and in the assay on SN12C renal was greater than 100 µM each time.
Regarding `CC(C)C1(NC(=O)C2CC3c4cccc5[nH]cc(c45)CC3N(C)C2)OC2(O)C3CCCN3C(=O)C(Cc3ccccc3)N2C1=O` (stereo not drawn), the TGI in the assay with 786-0 renal, in the assay with DU-145 prostate, in the assay on M14 melanoma, with MDA-MB-435, in the assay on NCI-H23 lung and with NCI/ADR-RES ovarian was greater than 100 µM in each case. Also, the TGI in the assay with RPMI-8226 leukemia was 39.8 µM; in the assay with SN12C renal, greater than 100 µM.
On to `O=c1c2ccccc2oc2ccccc12` (tested in a mixture with another compound), for which the TGI was greater than 100 µM in the assay with 786-0 renal; 82.5 µM in the assay on A498 renal; greater than 100 µM in the assay with M14 melanoma; greater than 100 µM in the assay on RPMI-8226 leukemia; 60.8 µM in the assay with SN12C renal.
In the case of `COC(=O)C(=O)C(C(=O)C(=O)Nc1ccccc1[N+](=O)[O-])c1nc2ccc([N+](=O)[O-])cc2[nH]c1=O` (stereo not drawn), the TGI in the assay on 786-0 renal, with A498 renal, in the assay with M14 melanoma, in the assay with NCI-H226 lung, in the assay on NCI-H23 lung and with RPMI-8226 leukemia was greater than 100 µM each time. Also, the TGI in the assay on SN12C renal is greater than 100 µM.
Regarding `C=CCC12CC(=O)CCC1c1ccc(OC)cc1C2=O` (stereo not drawn), the TGI in the assay on 786-0 renal, in the assay with A498 renal, with M14 melanoma, in the assay with NCI-H226 lung, in the assay with NCI-H23 lung and in the assay with RPMI-8226 leukemia was greater than 100 µM throughout. Besides, in the assay with SN12C renal, the TGI was greater than 100 µM.
For the compound `COC(=O)/C(C#N)=C1\CCC(OC)N1C` (stereo not drawn), the TGI in the assay on 786-0 renal, with M14 melanoma, with NCI-H226 lung, in the assay on NCI-H23 lung, in the assay on RPMI-8226 leukemia and with SN12C renal was greater than 100 µM in each case.
As for `CCCCCCC(=O)C/C(CCC(=O)N(Cc1ccccc1)Cc1ccccc1)=N\NC(N)=O`, the TGI in the assay on 786-0 renal, in the assay on A498 renal, in the assay with M14 melanoma, with NCI-H226 lung, with NCI-H23 lung and in the assay on RPMI-8226 leukemia was greater than 100 µM each time. Also, the TGI with SN12C renal is greater than 100 µM.
As to `O=C1OCC2=C1C(c1cccc(C(F)(F)F)c1)c1cc3c(cc1N2CCO)OCCO3` (stereo not drawn), the GI50 in the assay on 786-0 renal is 1810 nM; with A498 renal, 866 nM; in the assay on DU-145 prostate, 1540 nM; with M14 melanoma it was 0.967 µM; in the assay with NCI-H226 lung, greater than 33.3 µM; with NCI-H23 lung, 1.78 µM. The GI50 in the assay with NCI/ADR-RES ovarian was 1.11 µM; with RPMI-8226 leukemia, 1390 nM; in the assay on SN12C renal, 2210 nM. The TGI with 786-0 renal is greater than 33.3 µM; in the assay with A498 renal, 3.25 µM; in the assay with DU-145 prostate, greater than 33.3 µM; in the assay with M14 melanoma, greater than 33.3 µM; in the assay with NCI-H226 lung it was greater than 33.3 µM; with NCI-H23 lung, greater than 33.3 µM. Further, the TGI in the assay on NCI/ADR-RES ovarian, in the assay on RPMI-8226 leukemia and in the assay with SN12C renal was greater than 33.3 µM throughout.
In the case of `COc1cc2c(cc1OC)C(C(CBr)CBr)N(C1CCCC1)CC2` (stereo not drawn), the TGI with 786-0 renal, in the assay on A498 renal, in the assay with M14 melanoma, with NCI-H226 lung, in the assay with NCI-H23 lung and with RPMI-8226 leukemia was greater than 100 µM each time.
Turning to `CC(/C=C/C(=O)c1sc(C(N)=S)nc1C)=C\c1ccccc1`, the TGI in the assay with 786-0 renal was greater than 100 µM; with A498 renal, greater than 100 µM; in the assay on M14 melanoma it was greater than 100 µM; in the assay with NCI-H226 lung, greater than 100 µM; in the assay with NCI-H23 lung it was greater than 100 µM; in the assay with RPMI-8226 leukemia, 44.6 µM. The same compound had a TGI with SN12C renal greater than 100 µM.
On to `COc1ccc(-c2cc3ccccc3[nH]c2=O)cc1OC`, for which the TGI with 786-0 renal, in the assay with M14 melanoma, in the assay on NCI-H226 lung, with NCI-H23 lung, with RPMI-8226 leukemia and with SN12C renal was greater than 100 µM throughout.
Take `Brc1cc(C2OCCCO2)ccc1OCc1ccccc1`: the TGI in the assay on 786-0 renal, in the assay with A498 renal, in the assay with M14 melanoma, in the assay on NCI-H226 lung, with NCI-H23 lung and in the assay on RPMI-8226 leukemia was greater than 100 µM in each case. Besides, the TGI in the assay with SN12C renal is greater than 100 µM.
On to `CCC1CCCCN1CC(C(C)=O)C(c1ccccc1)c1c(O)c2ccccc2oc1=O` (stereo not drawn), for which the TGI with 786-0 renal, in the assay with A498 renal, in the assay on M14 melanoma, in the assay on NCI-H226 lung, in the assay with NCI-H23 lung and in the assay with RPMI-8226 leukemia was greater than 100 µM throughout. This compound also had a TGI with SN12C renal greater than 100 µM.
